Legend:
[1] = tested on: Rat; assay: concentration in liver after dosing; conditions: 5.333 h; dosed: Thiodiglycolic Acid; 20 mg/kg; iv; Female; Harlan Sprague Dawley
[2] = tested on: Rat; assay: concentration in liver after dosing; conditions: 2 h; dosed: Thiodiglycolic Acid; 20 mg/kg; iv; Male; Harlan Sprague Dawley
[3] = tested on: Rat; assay: concentration in heart after dosing; conditions: dosed: Thiodiglycolic Acid, 20 mg/kg, iv
[4] = tested on: Rat; assay: concentration in plasma after dosing; conditions: dosed: Thiodiglycolic Acid, 20 mg/kg, iv
[5] = tested on: Rat; assay: concentration in liver after dosing; conditions: 3 h; dosed: Thiodiglycolic Acid; 20 mg/kg; iv; Male; Harlan Sprague Dawley
[6] = tested on: Rat; assay: concentration in liver after dosing; conditions: dosed: Thiodiglycolic Acid, 20 mg/kg, iv
[7] = tested on: Rat; assay: concentration in thymus after dosing; conditions: dosed: Thiodiglycolic Acid, 20 mg/kg, iv

O=C(O)CSCC(=O)O [Thiodiglycolic Acid]
Conditions	concentration in liver [ng/g]
[1]	2510
[2]	112000
[5]	59900

Conditions	concentration in heart, [3] [ng/g]	concentration in liver, [6] [ng/g]	concentration in plasma, [4] [ng/mL]	concentration in thymus, [7] [ng/g]
1 h, Female, Harlan Sprague Dawley	1670	71500	8500	2560
1 h, Male, Harlan Sprague Dawley	1760	107000	1340	2750
2 h, Female, Harlan Sprague Dawley	1120	21800	1220	1650
2 h, Male, Harlan Sprague Dawley	1340	108000	751	1940
3 h, Female, Harlan Sprague Dawley	562	9460	520	1060
3 h, Male, Harlan Sprague Dawley	1040	50900	553	1370
4 h, Female, Harlan Sprague Dawley	414	2680	228	708
4 h, Male, Harlan Sprague Dawley	476	45400	332	939
5.333 h, Female, Harlan Sprague Dawley	232	2410	302	399
5.333 h, Male, Harlan Sprague Dawley	388	29400	247	715
6.667 h, Female, Harlan Sprague Dawley	238	2220	–	236
8 h, Female, Harlan Sprague Dawley	328	246	200	487
10 h, Female, Harlan Sprague Dawley	–	7570	–	215
10 h, Male, F344	362	4770	215	358
10 min, Female, Harlan Sprague Dawley	8480	75000	37500	8190
10 min, Male, F344	6870	148000	25600	10000
20 min, Female, F344	4000	198000	6700	3960
20 min, Female, Harlan Sprague Dawley	4770	11000	9230	4460
40 min, Female, Harlan Sprague Dawley	2650	49400	3520	3000
40 min, Male, Harlan Sprague Dawley	2660	190000	1820	2890

Reference: EPA's CvTdb concentration-time database
